Literature values in patent publication US7585955B2, “Protein separation from a protein mixture” (Florida State University Research Foundation, Inc, priority 2005, dated 2009).

Settings: for pKa1 / pKa2: polyprotic buffer component

| Compound | pKa1 | pKa2 | pKa |
| --- | --- | --- | --- |
| CC(N)CN (centres unmarked) [1,2-propanediamine] | about 9.80 | about 6.60 | – |
| Cc1ccc2ccccc2n1 [2-methylquinoline] | – | – | about 5.80 |
| O=C(O)CCCl [3-chloropropanoic acid] | – | – | about 3.98 |
| Nc1ccc(N=Nc2ccccc2)cc1 [4-aminoazobenzene] | – | – | about 2.82 |
| Cc1ccnc2ccccc12 [4-methylquinoline] | – | – | about 5.70 |
| Cc1cccc2ncccc12 [5-methylquinoline] | – | – | about 5.20 |
| Clc1cnc2ncncc2n1 [6-chloropteridine] | – | – | about 3.70 |
| Oc1ccc2ccncc2c1 [7-isoquinolinol] | about 8.90 | about 5.70 | – |
| CN(C)CC(=O)O [N,N-dimethylglycine] | – | – | about 9.90 |
| CC(=O)NCC(=O)O [N-acetylglycine] | – | – | about 3.70 |
| CCNc1ccccc1 [N-ethylaniline] | – | – | about 5.10 |
| chloroaniline | – | – | about 2.80 |

The remaining lines, values ahead:

| pKa1 | pKa2 | pKa | Compound |
| --- | --- | --- | --- |
| – | – | about 3.60 | CC(=O)CC(=O)O [acetoacetic acid] |
| – | – | about 5.60 | c1ccc2nc3ccccc3cc2c1 [acridine] |
| – | – | about 2.80 | O=C(O)c1cncc(C(=O)O)c1 [dinicotinic acid] |
| – | – | about 2.80 | N=C(N)NCC(=O)O [glycocyamine] |
| about 5.60 | about 4.70 | – | O=C(O)CCCCCC(=O)O [heptanedioic acid] |
| about 9.80 | about 6.00 | – | NCCc1c[nH]cn1 [histamine] |
| – | – | about 5.40 | c1ccc2cnccc2c1 [isoquinoline] |
| – | – | about 3.80 | CC(O)C(=O)O (centres unmarked) [lactic acid] |
| about 9.70 | about 8.60 | – | NC[C@H](O)c1ccc(O)c(O)c1 [noradrenaline] |
| – | – | about 5.30 | Nc1nccs1 [thiazolamine] |
| – | – | about 9.80 | CN(C)C [trimethylamine] |
| – | – | about 3.90 | O=c1[nH]c(=O)c2[nH]c(=O)[nH]c2[nH]1 [uric acid] |
